In PubChem BioAssay AID1963835 (Molecular Pharmacology Branch, DTP, NCI, 2024):
pIC50: −log10 of the molar value.

Test system: 699152-130-R-J1-PDC complex spheroid viability
Assay: Anticancer human tumor 699152-130-R-J1-PDC patient-derived pancreatic carcinoma cell line growth inhibition [POLQ]
Details: for pIC50: curve of first compound; for viability, T/C: stronger effect = lower value
Procedure: Multicellular complex tumor spheroid response to Polymerase (POL) inhibitors (novobiocin, ART-558, RP6685) in combination with a variety of drugs and investigational agents in selected tumor cell lines
The POL inhibitors (novobiocin, ART-558, and RP6685) were evaluated both individually and in combination with standard of care and investigational anticancer small molecules within a complex spheroid model of solid tumors. . Complex spheroids include a stromal component modeled by human endothelial cells (HUVEC) and fibroblasts modeled by human mesenchymal stem cells (MSCs). The concentration ranges selected for each drug and investigational agent were based upon clinically achievable concentrations if the clinical Cmax of the agent was known.
Compounds. The drugs and investigational agents: novobiocin (NSC847541), ART-558 (NSC835418), RP-6685 (NSC848927), peposertib (NSC802822), ceralasertib (NSC780249), elimusertib (NSC800525), camonsertib (NSC841442), AZD-1390 (NSC803789), olaparib (NSC753686), talazoparib (NSC767125), rucaparib (NSC756644), sotorasib (NSC818433), MRTX-1133 (NSC836407), SN-38 (NSC673596), topotecan (NSC609699), epotoside (NSC141540), doxorubicin (NSC123127), gemcitabine (NSC613327), 5-fluorouracil (NSC19893), paclitaxel (NSC125973), vemurafenib (NSC761431), MSA-2 (NSC828583), SN-011 (NSC837082), adavosertib (NSC754352), prexasertib (NSC758257), carboplatin (NSC241240) and oxaliplatin (NSC266046), were obtained from the National Cancer Institute (NCI) Developmental Therapeutics Program Chemical Repository (21). The FDA-approved anticancer drug set is available from the Developmental Therapeutics Program at https://dtp.cancer.gov/organization/dscb/obtaining/. […] The stock solutions were prepared in dimethyl sulfoxide (DMSO, Sigma-Aldrich, St. Louis, MO, cat. D2650), except for the platinum compounds which were prepared in saline (Quality Biological, Gaithersburg, MD, cat. 114-055-101), at 800-fold the tested concentration and stored at -70 degrees C prior to their use. All drugs and investigational agents were tested over a range starting from a high concentration at or near the clinical Cmax and decreasing in half-log increments. If the clinical Cmax for an agent had not been determined, the highest concentration tested was 10 microM, except for SN-38, which was tested at a high concentration of 1 microM.
Cell Culture. All cells were maintained in an incubator at 37 degrees C and 5% CO2 with 95% humidity. The PDC lines were cultured according to standard operating procedures established by the NCI PDMR (https://pdmr.cancer.gov). Table 3 of the manuscript, lists the cell lines along with the number of the three cell types plated to form the mct-spheroids and media for tumor cell growth. After thawing, all PDC lines, except 997537-175-T-J1-PDC and 415267-285-R-J2-PDC, were cultured in Matrigel-coated flasks prepared with a working solution of 1X Ham's F-12 nutrient mix, without supplementation (Thermo Fisher Scientific, cat. 11765054), 100 U/mL penicillin-streptomycin (Thermo Fisher Scientific, cat. 15140122), and 2.5% Matrigel (Corning Inc., Corning, NY, cat. 354248) for the first three passages. The two PDC lines 997537-175-T-J1-PDC and 415267-285-R-J2-PDC were cultured on uncoated flasks. The 857933-349-R-J2-PDC line was cultured in 6C/Colon 1B media containing advanced DMEM/F-12 (Thermo Fisher Scientific, cat. 12634028), 10 mM HEPES (Thermo Fisher Scientific, cat. 15630080), 1X GlutaMAX supplement (Thermo Fisher Scientific, cat. 35050061), 0.1 mg/mL primocin (InvivoGen, San Diego, CA, cat. ant-pm-2), 10% defined fetal bovine serum, heat inactivated (HyClone Laboratories Inc., Logan, UT, cat. SH30070.03HI), 50% L-WRN conditioned media (ATCC, cat. CRL-3276), 1.25 mM N-Acetyl-L-cysteine (Sigma-Aldrich, cat. A9165), 10 mM nicotinamide (Sigma-Aldrich, cat. N0636), 1X B-27 supplement (Thermo Fisher Scientific, cat. 17504044), 1X N-2 supplement (Thermo Fisher Scientific, cat. […]

[1] = second compound 0.0316 µM, first compound 0.0316 µM
[2] = second compound 0.0316 µM, first compound 0.1 µM
[3] = second compound 0.0316 µM, first compound 0.316 µM
[4] = second compound 0.0316 µM, first compound 1 µM
[5] = second compound 0.0316 µM, first compound 3.16 µM
[6] = second compound 0.0316 µM, first compound 10 µM
[7] = second compound 0.1 µM, first compound 0.0316 µM
[8] = second compound 0.1 µM, first compound 0.1 µM
[9] = second compound 0.1 µM, first compound 0.316 µM
[10] = second compound 0.1 µM, first compound 1 µM
[11] = second compound 0.1 µM, first compound 3.16 µM
[12] = second compound 0.1 µM, first compound 10 µM
[13] = second compound 0.316 µM, first compound 0.0316 µM
[14] = second compound 0.316 µM, first compound 0.1 µM
[15] = second compound 0.316 µM, first compound 0.316 µM
[16] = second compound 0.316 µM, first compound 1 µM
[17] = second compound 0.316 µM, first compound 3.16 µM
[18] = second compound 0.316 µM, first compound 10 µM
[19] = second compound 1 µM, first compound 0.0316 µM
[20] = second compound 1 µM, first compound 0.1 µM
[21] = second compound 1 µM, first compound 0.316 µM
[22] = second compound 1 µM, first compound 1 µM
[23] = second compound 1 µM, first compound 3.16 µM
[24] = second compound 1 µM, first compound 10 µM
[25] = second compound 3.16 µM, first compound 0.0316 µM
[26] = second compound 3.16 µM, first compound 0.1 µM
[27] = second compound 3.16 µM, first compound 0.316 µM
[28] = second compound 3.16 µM, first compound 1 µM
[29] = second compound 3.16 µM, first compound 3.16 µM
[30] = second compound 3.16 µM, first compound 10 µM
[31] = second compound 10 µM, first compound 0.0316 µM
[32] = second compound 10 µM, first compound 0.1 µM
[33] = second compound 10 µM, first compound 0.316 µM
[34] = second compound 10 µM, first compound 1 µM
[35] = second compound 10 µM, first compound 3.16 µM
[36] = second compound 10 µM, first compound 10 µM
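Also: spheroids exposed to agents for 7 days before viability reading.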
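For viability, T/C in this document: percent of DMSO vehicle control viability so 100% = vehicle and 0% = no viable signal.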

## CCCS(=O)(=O)Nc1ccc(F)c(C(=O)c2c[nH]c3ncc(-c4ccc(Cl)cc4)cc23)c1F + Nc1ccc(C#CCN(C(=O)Cc2ncc(C(F)(F)F)cc2C(F)(F)F)c2ccc(F)cc2)nn1
Second compound 0.0316 µM
  pIC50: 5.07
Second compound 0.1 µM
  pIC50: 5.05
Second compound 0.316 µM
  pIC50: 5.06
Second compound 1 µM
  pIC50: 5.08
Second compound 3.16 µM
  pIC50: 5.03
Second compound 10 µM
  pIC50: < 5.00
[1]
  viability, T/C: 101%
[2]
  viability, T/C: 113%
[3]
  viability, T/C: 118%
[4]
  viability, T/C: 167%
[5]
  viability, T/C: 167%
[6]
  viability, T/C: 36.3%
[7]
  viability, T/C: 109%
[8]
  viability, T/C: 117%
[9]
  viability, T/C: 119%
[10]
  viability, T/C: 143%
[11]
  viability, T/C: 188%
[12]
  viability, T/C: 40%
[13]
  viability, T/C: 111%
[14]
  viability, T/C: 113%
[15]
  viability, T/C: 132%
[16]
  viability, T/C: 175%
[17]
  viability, T/C: 184%
[18]
  viability, T/C: 36.2%
[19]
  viability, T/C: 96.2%
[20]
  viability, T/C: 116%
[21]
  viability, T/C: 119%
[22]
  viability, T/C: 133%
[23]
  viability, T/C: 166%
[24]
  viability, T/C: 35.8%
[25]
  viability, T/C: 114%
[26]
  viability, T/C: 123%
[27]
  viability, T/C: 124%
[28]
  viability, T/C: 163%
[29]
  viability, T/C: 179%
[30]
  viability, T/C: 44.5%
[31]
  viability, T/C: 124%
[32]
  viability, T/C: 128%
[33]
  viability, T/C: 131%
[34]
  viability, T/C: 161%
[35]
  viability, T/C: 192%
[36]
  viability, T/C: 52.9%

## O=C(c1cc(Cc2n[nH]c(=O)c3ccccc23)ccc1F)N1CCN(C(=O)C2CC2)CC1 + Cc1cccc(N(C)C(=O)C2C(O)CCN2c2nc(C)cc(C(F)(F)F)c2C#N)c1
Second compound 0.0316 µM
  pIC50: < 5.00
Second compound 0.1 µM
  pIC50: < 5.00
Second compound 0.316 µM
  pIC50: < 5.00
Second compound 1 µM
  pIC50: < 5.00
Second compound 3.16 µM
  pIC50: < 5.00
Second compound 10 µM
  pIC50: < 5.00
[1]
  viability, T/C: 91.2%
[2]
  viability, T/C: 96.4%
[3]
  viability, T/C: 82.7%
[4]
  viability, T/C: 96.1%
[5]
  viability, T/C: 104%
[6]
  viability, T/C: 69.6%
[7]
  viability, T/C: 94%
[8]
  viability, T/C: 104%
[9]
  viability, T/C: 93.1%
[10]
  viability, T/C: 94.8%
[11]
  viability, T/C: 99.5%
[12]
  viability, T/C: 75.5%
[13]
  viability, T/C: 88.3%
[14]
  viability, T/C: 97.1%
[15]
  viability, T/C: 97.3%
[16]
  viability, T/C: 111%
[17]
  viability, T/C: 107%
[18]
  viability, T/C: 81%
[19]
  viability, T/C: 103%
[20]
  viability, T/C: 94.8%
[21]
  viability, T/C: 92.4%
[22]
  viability, T/C: 102%
[23]
  viability, T/C: 87.3%
[24]
  viability, T/C: 75.7%
[25]
  viability, T/C: 101%
[26]
  viability, T/C: 104%
[27]
  viability, T/C: 91.1%
[28]
  viability, T/C: 97.1%
[29]
  viability, T/C: 92.6%
[30]
  viability, T/C: 72%
[31]
  viability, T/C: 94.6%
[32]
  viability, T/C: 90.6%
[33]
  viability, T/C: 105%
[34]
  viability, T/C: 84.9%
[35]
  viability, T/C: 99.1%
[36]
  viability, T/C: 78.9%
